What was measured:
monocytes = test: Induction of IFN-regulated genes and TNFα in monocytes by aPL or Tlr7 agonist; assay type: cell-based, mouse
Protocol: (B) Induction of IFN-regulated genes by aPL. (C) TF and Tnfα mRNA induction by aPL HL5B or HL7G stimulation of CD115+ splenocytes of indicated mice stimulated for 3 hours, as well as early ROS production; mean±SD, n=6; * p<0.0001; one-way ANOVA, Dunnett multiple-comparison test. (D) Live cell imaging of HL5B internalization in monocytes of indicated mouse strains. Bar=5 μm. (E) Live cell imaging of aPL HL5B Fab′2 or IgG colocalization with EPCR using non-inhibitory αEPCR 1489 in human MM1 cells. (F) Internalization of EPCR, FVIIa, and TF in MM1 cells stimulated for 15 minutes similarly required proteases and integrin trafficking. For quantification of internalization, surface staining was quenched with 0.4% trypan blue; mean±SD, n=6. * p<0.0001; one-way ANOVA, Dunnett multiple-comparison test compared to IgG control.
FXa generated by the coagulation initiator TF-FVIIa utilizes the endothelial protein C receptor (EPCR) for protease activated receptor (PAR) 2 cleavage that is specifically required for LPS-induced interferon (IFN) responses (15, 16).

MM1 cells = test: aPL signaling and internalization in MM1 cells with sphingomyelinase inhibitor; assay type: cell-based, human
Protocol: (A) aPL-mediated TF activation, PS exposure measured by annexin 5 staining, ROS production and TNFα induction as well as (B) aPL internalization in MM1 cells was blocked by sphingomyelinase inhibitor desipramine. Bar=5 μm. (C) aPL-induced ASM activity in MM1 cells is blocked by inhibitors of FXa, thrombin, and PAR1 cleavage. (D) Live cell imaging of surface ASM exposure in MM1 cells after 30 minutes of stimulation with Fab′2 aPL HLSB. Bar=5 μm. (E) ASM activity in unstimulated cell lysates after addition of sEPCR-LBPA (2.504) is blocked by αEPCR 1682. For all ASM activity assays: mean±SD, n=3. * p<0.0003; one-way ANOVA, Dunnett multiple-comparison test. […] (G, H) Thrombosis induction by dual reactive aPL HL7G in the indicated mouse strains or WT mice in presence of indicated αEPCR. (F-H) Quantification of thrombus size 3 hours after aPL injection; median, interquartile range, and range; n=6-11; * p <0.004; one-way ANOVA, Dunnett multiple-comparison test compared to αEPCR 1650. (I, J) Thrombosis induction by aPL HLSB (I) or IgG isolated from age-matched 16 weeks old lupus-prone MRL/lpr and MRL control mice (J) in the indicated mouse strains. Quantification of thrombus size 3 hours after aPL injection; median, interquartile range, and range; (I) n=6-10; * p=0.001; unpaired t-test. (J) n=5; * p=0.0025; two-way ANOVA, Sidak's multiple comparisons test. […]

EPCR^C/S monocytes = test: Lipid supplementation and aPL signalling in EPCR^C/S monocytes; assay type: cell-based, mouse; conditions: 10 μM
Excerpt: (A) Effect of aPL HL5B, aPL HL7G, and αEPCR antibodies on EPCR-dependent aPC generation on murine microvascular endothelial cells. (B) Effect of anti-mouse EPCR antibodies 1682 and 1650 on Tnfα mRNA induction by aPL HL5B and HL7G; mean±SD, n=6. * p<0.0001; one-way ANOVA, Dunnett multiple-comparison. (C) Effect of αEPCR on aPL HL5B and HL7G internalization in CD115+ splenocytes. Bar=5 μm. (D) Flow cytometry detection of FXa and EPCR on CD115+ spleen monocytes isolated from indicated mouse strains. (E) Effect of pre-treatment with 10 μM LBPA for 10 min on surface binding of αEPCR 1682 and αLBPA 6C4 on indicated monocytes; mean±SD, n=6. * p<0.003; multiple t-tests. (F) Competition of αEPCR 1650 and 1682 with binding of FITC-labelled anti-LBPA antibody 6C4 to mouse CD115+ splenocytes. (G) Competition of αLBPA 6C4 with binding of αEPCR 1682 to mouse monocytes. (H) Effect of LBPA, cardiolipin (CL), and phosphatidylserine (PS) (10 μM) on aPL HLSB signalling in EPCR^C/S monocytes. Induction of TNF after 3 hours is shown; mean±SD, n=6. (I) LBPA loading of purified mouse or human sEPCR evidenced by faster mobility on native gels. (J) Surface plasmon resonance analysis of aPL HLSB binding to purified human sEPCR or sEPCR-LBPA. The affinity calculation was based on a monovalent binding model because no cooperative binding was evident.
(A) TNFα mRNA induction after 2 hours by HLSB is prevented in Alix-deficient trophoblast cells; mean±SD, n=6. * p<0.0001; t-test following Shapiro-Wilk test for normal distribution. (B, C) Proximity ligation assays (PLA) for ASM and EPCR on scrambled control JARs or ALIX−/− cells after 10 minutes of stimulation with HLSB (B) or thrombin (C) with or without LBPA loading. Bar=25 μm. (D) aPL internalization in ALIX deficient JAR cells and signalling in EPCR^C/S monocytes (E) was restored by adding 10 μM LBPA (S,R) but not by other phospholipids. (F) Pregnancy loss was scored at day 15.5 p.c. after injection of aPL HLSB on days 8 and 12. * p<0.02; one-way ANOVA, Dunnett multiple-comparison test. […]

[1] = system: ALIX^−/− trophoblast cells; test: aPL HL5B binding to ALIX-deficient trophoblast (JAR) cells after adding phospholipids; assay type: cell-based, human; conditions: 10 μM lipid added
Protocol: (A) TNFα mRNA induction after 2 hours by HLSB is prevented in Alix-deficient trophoblast cells; mean±SD, n=6. * p<0.0001; t-test following Shapiro-Wilk test for normal distribution. (B, C) Proximity ligation assays (PLA) for ASM and EPCR on scrambled control JARs or ALIX−/− cells after 10 minutes of stimulation with HLSB (B) or thrombin (C) with or without LBPA loading. Bar=25 μm. (D) aPL internalization in ALIX deficient JAR cells and signalling in EPCR^C/S monocytes (E) was restored by adding 10 μM LBPA (S,R) but not by other phospholipids. (F) Pregnancy loss was scored at day 15.5 p.c. after injection of aPL HLSB on days 8 and 12. * p<0.02; one-way ANOVA, Dunnett multiple-comparison test. (G) Schematic representation of aPL signalling leading to thrombosis or pregnancy complications.
Human ALIX^−/− trophoblast cells and murine EPCR^C/S monocytes provided tools to compare the species conservation of lipid presentation by EPCR. Only addition of S/R 18:1 LBPA and R/R 18:1 LBPA, but not S/S 18:1 LBPA or semi-S/R LBPA restored aPL HL5B binding to ALIX^−/− trophoblast cells (FIG. 7D) or signaling in EPCR^C/S monocytes (FIG. 7E). Thus, human and mouse EPCR present LBPA with the same selectivity, providing an explanation for the remarkable species cross-reactivity of pathogenic aPL.

CCOCc1nc2c(N)nc3ccccc3c2n1CC(C)(C)O [R848]
induction of TNFα (monocytes): upregulated only TNFα

CNCCCN1c2ccccc2CCc2ccccc21 [desipramine]
aPL internalization (MM1 cells): blocked | aPL-mediated TF activation, PS exposure, ROS production and TNFα induction (MM1 cells): blocked

R/R 18:1 LBPA
aPL signaling in EPCR^C/S monocytes after adding LBPA isomers (EPCR^C/S monocytes): restored | aPL HL5B binding to ALIX^−/− trophoblast cells [1]: restored

— patent US20230043394A1, “METHODS FOR DETECTION OF PATHOGENIC ANTIPHOSPHOLIPID ANTIBODIES AND FOR IDENTIFICATION OF INHIBITORS” (UNIVERSITÄTSMEDIZIN DER JOHANNES GUTENBERG-UNIVERSITÄT MAINZ, priority 2019, published 2023)
